Earlier results, collected in patent US10189872B2, “Crystalline form of nicotinamide riboside” (W. R. Grace & Co.-Conn., priority 2015, dated 2019).

Conditions: mice on a high-fat diet supplemented with nicotinamide riboside; 2012 study

NC(=O)c1ccc[n+]([C@@H]2O[C@H](CO)[C@@H](O)[C@H]2O)c1 [nicotinamide riboside, Nicotinamide riboside]
less weight gained than mice eating the same high-fat diet without nicotinamide riboside: 60%
